Experimental data as given in patent US7560591B2, “Benzamidine derivatives having anti-inflammatory and immunosuppressive activity” (Rotta Research Laboratorium S.p.A., priority 2001, dated 2009).

Experiments:
[1] = test system: plasma TNFα; assay: Plasma TNFα concentration in rats after stimulation with LPS (endotoxic shock); format: in vivo, rat; conditions: for TNFα (ng/ml ± SD): plasma 90 minutes after challenge
Description: c) The immunosuppressive activity of Compound I-4 was evaluated in an in vivo test in the rat, in which a lipopolysaccharide (LPS) of bacterial origin, injected i.p. at a dose of 6 mg/kg, induced a shock characterised by urgent diarrhoea accompanied by a large increase in the plasma TNFα concentration.
Blood was taken from the animals which were killed 90 minutes after the challenge and the concentration of TNFα in the plasma was determined by Elisa (Amersham Kit cod. RPN2734).

[2] = test system: formation of NO, measured as NO2− (nitrites); assay: Inhibition of NO (nitrite) formation in rabbit joint chondrocytes stimulated by IL-1β; format: cell-based; conditions: Oryctolagus cuniculus, Chondrocyte, IL-1β 1 ng/ml, 48 hours, NO determined as nitrites
Description: (§1) a) The activity in inhibiting the formation of NO, measured as NO2^− (nitrites), PGE2, and neutral protease, was investigated in vitro on culture broths of rabbit joint chondrocytes stimulated by cytokine IL-1β (1 ng/ml) for 48 hours. For the preparation of the chondrocytes, the method described by Berenbaum et al [FEBS Letters 340, 51-55 (1994)] was followed. Briefly, fragments of cartilage removed under sterile conditions from the heads of rabbit shoulder, hip and knee joints were chopped finely and digested at 37° C. by hyaluronidase, trypsin and collagenase solutions, giving rise, after filtration on sterile gauze and centrifuging at 600×g and suitable dilution with 10% DMEM-FCS, to a concentration of approximately 1×10^5 cells per well. The cells were kept in these conditions until confluence (about 15 days), the broth being changed every 3 days. At this point, the products under test, dissolved in the medium, were added to each test sample and, after 20 minutes, 350 μl IL-1β was added in order to have a final concentration of 1 ng/ml. The duration of the stimulation was 48 hours at 37° C. (incubation air-CO2 7%). Measurement of the nitrites, as described by Green et al. [Anal. Biochem. 126, 131-138 (1982)], and of the PGE2s by RIA measurement, was then performed on the cell supernatant fluid. The measurement of the neutral proteases was performed in the cell supernatant fluid containing the p-aminophenyl mercury acetate (APMA) activator with the use of azocoll as the substrate and with incubation at 37° C. for 17 h as described by Chavira et al. [Anal. Biochem. 136, 446-450 (1984)]. In order to evaluate the direct inhibitory effect of the compounds under test on the hydrolytic activity of the cell supernatant fluid, they were added to the supernatant fluid containing the proteases induced by IL-1β and already activated by AMPA.
(§2) The results obtained are shown in Table 3, in which the IC50, that is, the concentration (micromolar) of antagonist which can inhibit the formation of nitrites, PGE2s, and neutral proteases, respectively, by 50% relative to the control group, that is, to the cells stimulated with IL-1β but without the addition of antagonists, is given for some of the compounds of the invention already given by way of example in Table 2.

[3] = test system: colitis induced by TNBS in rats; assay: Colitis induced by TNBS in rats; format: in vivo, rat; conditions: for Weight of the colon: 48 hours after TNBS; for Weight of the colon / Myeloperoxidase activity / iNOS activity / Macroscopic damage (MDS): mean ± SD; for Myeloperoxidase activity / iNOS activity: colon tissue; for Macroscopic damage (MDS): score 0-10
From the text: The combined capability of some of the compounds of the invention to inhibit both iNOS and the synthesis of TNFα has led to their activity being checked in an experimental model of colitis caused by a chemical hapten, trinitrobenzene-sulphonic acid (TNBS), which can bind to the tissue proteins and stimulate cell-mediated immunity. The intrarectal administration of TNBS in association with ethanol causes acute inflammation characterised by extensive ulceration and necrosis.
A distal colitis was therefore induced in the rat by intrarectal instillation of TNBS (40 mg/kg) dissolved in 50% ethanol (0.5 ml/rat). The drugs were administered orally twice a day on days −2; −1; 0; +1 and the animals were killed 48 hours after the administration of TNBS.
The parameters examined were: total weight of the colon (g), macroscopic tissue damage “score”, measurement of the tissue myeloperoxidase (MPO) activity, which is a marker of the infiltration of the neutrophiles, and measurement of the iNOS activity (pmoles/g tissue/min.).
The macroscopic score (MDS) was taken on about 10 cm of colon in accordance with the following arbitrary scale:
The tissue MPO measurement was performed according to Velgara et al., JPET 1994. The measurement of the tissue nitrites was performed by applying the method described above for the chondrocytes to the supernatant fluid of the tissue homogenate.
Compound I-4, administered in doses of 5, 10 and 20 mg/kg, and compound I-11 were examined, by administering them orally, in comparison with sulphasalazine (250 mg/kg) and 5-aminosalicylic acid (5-ASA) (100 mg/kg), 2 drugs which are widely used in the treatment of ulcerative colitis.

[4] = test system: neutral proteases (metalloproteases); assay: Inhibition of neutral proteases (metalloproteases) in supernatant of IL-1β-stimulated rabbit joint chondrocytes, azocoll substrate; format: biochemical; conditions: IL-1β 1 ng/ml, 48 hours, APMA-activated supernatant, read-out: MP (metalloproteases) IC50
Description: as §1, §2

[5] = 50 μg/kg ICV + LPS 6 mg/kg I.P.

IC50 [2]: 6.6 µM
IC50 [4]: 6.6 µM
melting point: 190.7 to 191.4 °C
Structure (SMILES): CCCCCNC(=S)Nc1ccc(NC(C)=N)cc1 [Compound I-4, N-[4-(N-acetamidine)phenyl]-N′-pentyl Thiourea]
Inhibition (%) of plasma TNFα [1, 5]: 96.2%
TNFα (ng/ml ± SD) [1, 5]: 2.3 ± 1.2 ng/mL
TNFα (ng/ml ± SD) ([1]; 10 mg/kg IV + LPS 6 mg/kg I.P.): 12.9 ± 7.2 ng/mL
TNFα (ng/ml ± SD) ([1]; 20 mg/kg OS + LPS 6 mg/kg I.P.): 30.6 ± 1.0 ng/mL
inhibition at 10 mg/kg ([1]; Rattus norvegicus, 10 mg/kg IV + LPS 6 mg/kg I.P.): 78.9%
Weight of the colon ([3]; 5 mg/kg orally twice a day): 2.2 ± 0.2 g
Myeloperoxidase activity ([3]; 5 mg/kg orally twice a day): 5.5 ± 1.4 UMPO/g/min
iNOS activity ([3]; 5 mg/kg orally twice a day): 131.7 ± 91.9 pmol/g/min
Macroscopic damage (MDS) ([3]; 5 mg/kg orally twice a day): 5.0 ± 0.9
Weight of the colon ([3]; 10 mg/kg orally twice a day): 2.1 ± 0.3 g
Myeloperoxidase activity ([3]; 10 mg/kg orally twice a day): 5.0 ± 1.7(*) UMPO/g/min
iNOS activity ([3]; 10 mg/kg orally twice a day): 98.6 ± 60.0 pmol/g/min
Macroscopic damage (MDS) ([3]; 10 mg/kg orally twice a day): 4.4 ± 0.8(*)
Weight of the colon ([3]; 20 mg/kg orally twice a day): 2.0 ± 0.2 g
Myeloperoxidase activity ([3]; 20 mg/kg orally twice a day): 5.1 ± 1.2(*) UMPO/g/min
iNOS activity ([3]; 20 mg/kg orally twice a day): 61.5 ± 31.4 pmol/g/min
Macroscopic damage (MDS) ([3]; 20 mg/kg orally twice a day): 3.5 ± 0.8(*)
reduction of macroscopic damage ([3]; doses of 10 and 20 mg/kg): about 50%
reduction of the increase in iNOS activity induced by TNBS ([3]; doses of 10 and 20 mg/kg): 50%
reduction of the increase in tissue MPO activity induced by TNBS ([3]; doses of 10 and 20 mg/kg): 40%
